Our source for the IC50 values is US12686665B2, “Bicyclic fused ring derivative or salt thereof and pharmaceutical composition comprising same” (YUHAN CORPORATION, priority 2021, dated 2026).

By IC50 is commonly meant the concentration at which inhibition is half-maximal.

Format in all cases: biochemical
For test [1], the target named is T1, recombinant human Lysyl Oxidase-Like 2 (LOXL2) (Homo sapiens, UniProt Q9Y4K0).
T1 construct: purchased R&D systems
T1 sequence (Q9Y4K0 26-774): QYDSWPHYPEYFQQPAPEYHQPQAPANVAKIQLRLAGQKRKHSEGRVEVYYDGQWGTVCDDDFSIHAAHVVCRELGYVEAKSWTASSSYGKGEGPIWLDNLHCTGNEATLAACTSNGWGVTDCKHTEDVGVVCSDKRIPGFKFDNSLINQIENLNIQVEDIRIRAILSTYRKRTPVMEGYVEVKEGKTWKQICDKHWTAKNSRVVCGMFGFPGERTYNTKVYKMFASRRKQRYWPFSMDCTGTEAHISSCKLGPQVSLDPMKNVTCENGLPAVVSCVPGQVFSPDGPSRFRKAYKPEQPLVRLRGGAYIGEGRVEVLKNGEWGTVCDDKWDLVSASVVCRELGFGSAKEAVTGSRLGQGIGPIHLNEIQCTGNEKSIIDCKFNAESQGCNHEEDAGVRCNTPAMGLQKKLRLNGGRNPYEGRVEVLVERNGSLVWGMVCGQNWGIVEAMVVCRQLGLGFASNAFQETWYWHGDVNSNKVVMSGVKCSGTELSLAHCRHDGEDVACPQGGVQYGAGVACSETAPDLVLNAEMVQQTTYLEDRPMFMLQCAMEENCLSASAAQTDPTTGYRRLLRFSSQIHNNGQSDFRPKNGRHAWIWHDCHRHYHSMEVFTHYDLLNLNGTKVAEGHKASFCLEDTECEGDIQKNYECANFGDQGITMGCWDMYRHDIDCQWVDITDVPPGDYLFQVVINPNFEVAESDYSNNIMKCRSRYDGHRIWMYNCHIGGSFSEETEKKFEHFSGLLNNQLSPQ
Nature of the test: Amplex Red HRP-coupled amine oxidase assay, recombinant human LOXL2. Conditions: 60 min incubation with enzyme at 37° C., putrescine substrate, read-out: Inhibitory activity (IC50, nM) human LOXL2. A digest of the protocol: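 Putrescine substrate (30 mM) in 50 mM sodium phosphate pH 7.4, 37 °C; compounds preincubated 60 min with enzyme, 1% DMSO final, six-point curves. H2O2 detected via 400 μM Amplex Red/2 U/mL HRP, fluorescence (ex 530/em 590 nm) after 1 h; IC50 from four-parameter logistic fit of % signal reduction.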

For test [2], the target named is T2, recombinant human MAO-A (monoamine oxidase-A) (Homo sapiens, UniProt P21397).
T2 construct: purchased Sigma-Aldrich
T2 sequence (P21397 1-527): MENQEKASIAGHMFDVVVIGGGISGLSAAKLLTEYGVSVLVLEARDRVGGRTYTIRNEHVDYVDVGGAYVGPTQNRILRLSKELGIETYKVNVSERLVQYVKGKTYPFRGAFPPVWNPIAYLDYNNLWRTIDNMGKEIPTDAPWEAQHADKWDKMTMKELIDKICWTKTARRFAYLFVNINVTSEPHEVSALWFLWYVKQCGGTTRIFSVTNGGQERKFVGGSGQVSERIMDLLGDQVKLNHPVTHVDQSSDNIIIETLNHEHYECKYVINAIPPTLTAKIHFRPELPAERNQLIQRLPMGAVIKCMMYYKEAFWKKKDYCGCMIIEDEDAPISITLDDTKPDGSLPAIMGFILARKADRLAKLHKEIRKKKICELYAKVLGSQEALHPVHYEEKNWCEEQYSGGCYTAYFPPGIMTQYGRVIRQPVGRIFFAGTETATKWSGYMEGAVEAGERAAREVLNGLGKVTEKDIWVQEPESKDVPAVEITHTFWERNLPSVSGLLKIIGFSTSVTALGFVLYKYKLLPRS
Nature of the test: Amplex Red HRP-coupled amine oxidase assay, recombinant human MAO-A. Conditions: 0.5 mM tyramine substrate, read-out: Inhibitory activity (IC50, nM) MAO-A. On the procedure: (§1) The activities of the compounds according to the present invention against recombinant human Lysyl Oxidase-Like 2 (recombinant human LOXL2, R&D systems) were evaluated by measuring the levels of hydrogen peroxide in the HRP (horseradish peroxidase) coupled reactions, with the Amplex Red Hydrogen Peroxide Assay Kit (Molecular Probes, Invitrogen, USA). The tests were carried out at 37° C., and putrescine was used as a substrate. In the HRP coupling reaction, the oxidation of 10-acetyl-3,7-dihydroxyphenoxazine (Amplex Red reagent) by hydrogen peroxide generates a fluorescent product, i.e., resorufin. Briefly, the test compounds were dissolved in dimethyl sulfoxide (DMSO) at a concentration of 20 mM. Dose-response measurements were carried out by serial dilutions in DMSO to generate a six-point curve. The upper concentration was adjusted according to the potency of the compound, and then diluted with the reaction buffer to obtain a final DMSO concentration of 1%. Purified human LOXL2 in 50 mM sodium phosphate buffer (pH7.4) was added to each well of a 96 well black plate. The test compounds dissolved in DMSO were incubated with the human LOXL2 enzyme at 37° C. for 60 minutes. After the incubation for 60 minutes, a reaction mixture containing 400 μM Amplex Red reagent, 30 mM putrescine, and 2 U/mL HRP in 50 mM sodium phosphate buffer (pH 7.4) was added to each well. Fluorescence was measured with a microplate reader (Flexstation3, Molecular Devices), under the conditions of excitation at 530 nm and emission at 590 nm, 1 hour after the addition of the mixture. Inhibition by each compound was measured as % reduction in signal, compared to the control without an inhibitor (diluted DMSO only). The data were fixed to a four-variable logistic model, and […] values were calculated using the GraphPad Prism program.
(§2) And, the activities of the compounds according to the present invention against recombinant human MAO-A (monoamine oxidase-A, Sigma-Aldrich) and recombinant human MAO-B (monoamine oxidase-B, Sigma-Aldrich) were evaluated in a similar manner to the activity evaluation method for recombinant human LOXL2, using 0.5 mM tyramine and 1 mM benzylamine as a substrate, respectively. In addition, the activities of the compounds according to the present invention against recombinant human DAO (diamine oxidase, R&D systems) were evaluated in a similar manner to the activity evaluation method for recombinant human LOXL2, using 1 mM putrescine as a substrate.

The target of test [3] is T3, recombinant human MAO-B (monoamine oxidase-B) (Homo sapiens, UniProt P27338).
T3 construct: purchased Sigma-Aldrich
T3 sequence (P27338 1-520): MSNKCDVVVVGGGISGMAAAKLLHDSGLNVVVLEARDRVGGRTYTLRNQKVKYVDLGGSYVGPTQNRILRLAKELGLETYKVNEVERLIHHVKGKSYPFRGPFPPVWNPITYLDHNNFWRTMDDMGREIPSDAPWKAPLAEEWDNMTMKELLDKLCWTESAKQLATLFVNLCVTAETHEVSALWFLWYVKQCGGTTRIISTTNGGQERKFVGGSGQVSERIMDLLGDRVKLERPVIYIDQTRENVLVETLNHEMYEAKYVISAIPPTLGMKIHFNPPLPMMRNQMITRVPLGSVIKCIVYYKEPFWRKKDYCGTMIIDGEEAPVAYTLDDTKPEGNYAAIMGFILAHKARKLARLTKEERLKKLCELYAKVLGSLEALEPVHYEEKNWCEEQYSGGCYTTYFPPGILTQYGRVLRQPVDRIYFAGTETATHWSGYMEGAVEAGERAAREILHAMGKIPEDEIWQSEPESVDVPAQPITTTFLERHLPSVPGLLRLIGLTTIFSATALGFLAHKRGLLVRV
The experiment in a line: Amplex Red HRP-coupled amine oxidase assay, recombinant human MAO-B. Conditions: 1 mM benzylamine substrate, read-out: Inhibitory activity (IC50, nM) MAO-B. On the procedure: as §1, §2

Test [4] addresses T4, recombinant human DAO (diamine oxidase) (Homo sapiens, UniProt P19801).
T4 construct: purchased R&D systems
T4 sequence (P19801 20-751): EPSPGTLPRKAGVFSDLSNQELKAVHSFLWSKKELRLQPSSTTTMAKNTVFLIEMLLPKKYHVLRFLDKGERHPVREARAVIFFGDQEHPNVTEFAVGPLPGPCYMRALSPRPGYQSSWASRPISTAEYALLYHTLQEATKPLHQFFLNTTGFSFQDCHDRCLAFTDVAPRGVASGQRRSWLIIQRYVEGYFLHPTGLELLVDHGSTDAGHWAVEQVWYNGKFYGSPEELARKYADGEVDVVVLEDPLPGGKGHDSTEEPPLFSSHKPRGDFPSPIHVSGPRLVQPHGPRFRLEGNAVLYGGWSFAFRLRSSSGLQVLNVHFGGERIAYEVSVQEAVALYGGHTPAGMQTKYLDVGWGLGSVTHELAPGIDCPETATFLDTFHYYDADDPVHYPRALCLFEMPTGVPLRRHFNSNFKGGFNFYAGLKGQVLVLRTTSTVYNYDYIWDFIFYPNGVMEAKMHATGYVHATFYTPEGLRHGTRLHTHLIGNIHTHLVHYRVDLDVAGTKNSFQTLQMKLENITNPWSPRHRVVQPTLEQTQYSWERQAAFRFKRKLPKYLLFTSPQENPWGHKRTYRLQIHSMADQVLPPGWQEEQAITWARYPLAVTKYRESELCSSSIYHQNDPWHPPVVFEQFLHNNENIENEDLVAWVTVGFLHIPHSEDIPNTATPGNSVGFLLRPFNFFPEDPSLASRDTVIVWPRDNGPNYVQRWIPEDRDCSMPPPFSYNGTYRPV
The experiment in a line: Amplex Red HRP-coupled amine oxidase assay, recombinant human DAO. The settings on record: 1 mM putrescine substrate, read-out: Inhibitory activity (IC50, nM) DAO. On the procedure:
as §1, §2

Counter-ions that a name gives are not always drawn.

Consider `CS(=O)(=O)c1cccc(-c2cc(F)cc3c2ncn3C/C(F)=C/CN)c1` [Example 3, (Z)-3-fluoro-4-(6-fluoro-4-(3-(methylsulfonyl)phenyl)-1H-benzo[d]imidazol-1-yl)but-2-en-1-amine hydrochloride], for which the IC50 was 54 nM in test [1], more than 100000 nM in test [2], 71200 nM in test [3] and 2940 nM in test [4].

For the compound `NC/C=C(\F)Cn1cnc2c(-c3cccc(S(=O)(=O)N4CCCC4)c3)cc(F)cc21` [Example 7, (Z)-3-fluoro-4-(6-fluoro-4-(3-(pyrrolidin-1-ylsulfonyl)phenyl)-1H-benzo[d]imidazol-1-yl)but-2-en-1-amine hydrochloride], the IC50 in test [1] is 35 nM; in test [2], 26500 nM; in test [3], more than 100000 nM; in test [4] it was 2410 nM.

Regarding `NC/C=C(\F)Cn1cnc2c(-c3cccc(S(=O)(=O)NC4CC4)c3)cc(F)cc21` [Example 9, (Z)-3-(1-(4-amino-2-fluorobut-2-en-1-yl)-6-fluoro-1H-benzo[d]imidazol-4-yl)-N-cyclopropylbenzenesulfonamide hydrochloride], the IC50 in test [1] was 39 nM; in test [2], 48600 nM; in test [3] it was more than 100000 nM; in test [4], 3100 nM.

Consider `CNS(=O)(=O)c1cccc(-c2cc(F)cc3c2ncn3C/C(F)=C/CN)c1` [Example 10, (Z)-3-(1-(4-amino-2-fluorobut-2-en-1-yl)-6-fluoro-1H-benzo[d]imidazol-4-yl)-N-methylbenzenesulfonamide hydrochloride], for which the IC50 is 22 nM in test [1], 65500 nM in test [2], more than 100000 nM in test [3] and 3920 nM in test [4].

`CS(=O)(=O)c1cccc(-c2cc(C(F)(F)F)cc3c2ncn3C/C(F)=C/CN)c1` [Example 13, (Z)-3-fluoro-4-(4-(3-(methylsulfonyl)phenyl)-6-(trifluoromethyl)-1H-benzo[d]imidazol-1-yl) but-2-en-1-amine hydrochloride]: the IC50 in test [1] was 104 nM; in test [2], more than 100000 nM; in test [3], more than 100000 nM; in test [4], more than 100000 nM.

Take `N#Cc1cc(-c2cccc(S(=O)(=O)N3CCCC3)c2)c2ncn(C/C(F)=C/CN)c2c1` [Example 181, (Z)-1-(4-amino-2-fluorobut-2-en-1-yl)-4-(3-(pyrrolidin-1-ylsulfonyl)phenyl)-1H-benzo[d]imidazol-6-carbonitrile hydrochloride]: the IC50 in test [1] was 43.1 nM; in test [2], more than 100000 nM; in test [3], more than 100000 nM.

Regarding `CN(C)S(=O)(=O)c1cccc(-c2cc(C#N)cc3c2ncn3C/C(F)=C/CN)c1` [Example 182, (Z)-3-(1-(4-amino-2-fluorobut-2-en-1-yl)-6-cyano-1H-benzo[d]imidazol-4-yl)-N,N-dimethylbenzenesulfonamide hydrochloride], the IC50 was 28.7 nM in test [1], more than 100000 nM in test [2] and more than 100000 nM in test [3].

In the case of `CC(=O)c1ccc(F)c(-c2cc(C#N)cc3c2ncn3C/C(F)=C/CN)c1` [Example 184, (Z)-4-(5-acetyl-2-fluorophenyl)-1-(4-amino-2-fluorobut-2-en-1-yl)-1H-benzo[d]imidazol-6-carbonitrile hydrochloride], the IC50 is 99 nM in test [1], more than 100000 nM in test [2] and more than 100000 nM in test [3].

Turning to `Cn1nccc1-c1cc(C#N)cc2c1ncn2C/C(F)=C/CN` [Example 191, (Z)-1-(4-amino-2-fluorobut-2-en-1-yl)-4-(1-methyl-1H-pyrazol-5-yl)-1H-benzo[d]imidazol-6-carbonitrile hydrochloride], the IC50 in test [1] is 95.5 nM; in test [2] it was more than 100000 nM; in test [3] it was more than 100000 nM.

On to `CCn1nccc1-c1cc(C#N)cc2c1ncn2C/C(F)=C/CN` [Example 192, (Z)-1-(4-amino-2-fluorobut-2-en-1-yl)-4-(1-ethyl-1H-pyrazol-5-yl)-1H-benzo[d]imidazol-6-carbonitrile hydrochloride], for which the IC50 in test [1] was 137 nM; in test [2] it was more than 100000 nM; in test [3], more than 100000 nM.
